# Results: ChEMBL document CHEMBL1129406, “Sustained decrease in cocaine-maintained responding in rhesus monkeys with 1-[2-[bis(4-fluorophenyl)methoxy]ethyl]-4-(3-hydroxy-3-phenylpropyl) piperazinyl decanoate, a long-acting ester derivative of GBR 12909” (1996)
# Experiments:
# Format in all cases: functional, Cercopithecidae
# Monkey [1] = assay: Effect of compound on rate of response maintained by cocaine (4.026 resp/s,+/-13.6%) in monkeys
# Monkey [2] = assay: Effect of compound on rate of response maintained by cocaine (4.026 resp/s,+/-13.6%) in monkeys at a dose of 6 mL
# Monkey [3] = assay: Effect of compound on rate of response maintained by cocaine (4.026 resp/s,+/-13.6%) in monkeys at a dose of 3 mL
# Monkey [4] = assay: Effect of compound on rate of response maintained by food (3.696 resp/s, +/-9.99%) in monkeys
# Monkey [5] = assay: Effect of compound on rate of response maintained by food (3.696 resp/s, +/-9.99%) in monkeys at a dose of 3 mL
structure (smiles),measurement,setting,value
CCCCCCCCCC(=O)OC(CCN1CCN(CCOC(c2ccc(F)cc2)c2ccc(F)cc2)CC1)c1ccccc1 (stereo not given),Control,Monkey [1],76.2%
same,Control,Monkey [2],25.3%
same,Control,Monkey [3],74%
same,Control,Monkey [4],97%
same,Control,Monkey [5],82%
